Reference: PMC5012620, “Blocking the Interactions between Calcium-Bound S100A12 Protein and the V Domain of RAGE Using Tranilast” (PLoS ONE, 2016)
Values belong to the molecule of their own block, whether it stands above or below them.

Key:
S100A12 = molecular target: T1, S100A12 (Homo sapiens, UniProt P80511); test: fluorescence titration (tranilast emission, excitation […] nm); 1H-15N HSQC NMR titration; assay type: binding
T1 sequence (P80511 2-92): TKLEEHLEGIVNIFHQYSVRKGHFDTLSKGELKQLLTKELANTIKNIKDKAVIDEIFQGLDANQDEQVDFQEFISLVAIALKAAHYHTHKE

RAGE V domain V domain = molecular target: T2, RAGE V domain V domain (Homo sapiens, UniProt Q15109); test: fluorescence titration (Trp)
T2 chain: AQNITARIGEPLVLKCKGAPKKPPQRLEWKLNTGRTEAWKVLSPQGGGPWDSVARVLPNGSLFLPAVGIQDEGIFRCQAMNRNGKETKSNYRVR

Kd (S100A12): 6.1 ± 1.4 µM
Molecule: COc1ccc(/C=C/C(=O)Nc2ccccc2C(=O)O)cc1OC [tranilast]

Kd (RAGE V domain V domain): ~3.1 µM
B1: S100A12 (protein)
chain: T1 sequence (P80511 2-92)
modifications: Ca2+
